The source made the active and inactive calls. The rule behind the calls is not given here.
Assays:
[1] = test system: MDA-MB-231; experiment: Cytotoxicity against human MDA-MB-231 cells after 24 hrs by MTT assay; format: functional, cell-based; conditions: MDA-MB-231, 24 h
[2] = test system: MCF7; experiment: Cytotoxicity against human MCF7 cells after 24 hrs by MTT assay; format: functional, cell-based; conditions: MCF7, 24 h
[3] = test system: HEK293; experiment: Cytotoxicity against HEK293 cells after 24 hrs by MTT assay; format: cell-based; conditions: Homo sapiens, HEK293, 24 h
[4] = test system: MCF7; experiment: Cell cycle arrest in human MCF7 cells assessed as increase in sub-G1 population at 0.5 to 10 uM after 24 hrs by propidium iodide staining based flow cytometric analysis; format: functional
[5] = test system: MDA-MB-231; experiment: Anti-migratory activity against human MDA-MB-231 cells assessed as reduction in cell migration towards wound area at 50 uM after 24 hrs by phase contrast microscopic analysis relative to control; format: functional; parameters: scale not given: the % may be the effect or the level left
[6] = test system: MDA-MB-231; experiment: Anti-migratory activity against human MDA-MB-231 cells assessed as reduction in cell migration towards wound area at 0.5 to 10 uM after 24 hrs by phase contrast microscopic analysis; format: functional, cell-based
[7] = test system: MCF7; experiment: Decrease in 5alpha-DHP level in human MCF7 cells after 24 hrs by ELISA; format: functional, cell-based
[8] = test system: MCF7; experiment: Induction of mitochondrial membrane potential loss in human MCF7 cells assessed as ratio of green to red fluorescence at 5 uM after 24 hrs by JC1 staining based flow cytometric analysis (reference value: 1.41); format: functional
[9] = test system: MCF7; experiment: Induction of apoptosis in human MCF7 cells after 24 hrs by Annexin-V-FITC/propidium iodide staining based flow cytometric analysis; format: functional, cell-based
[10] = test system: MCF7; experiment: Decrease in SRD5A1 level in human MCF7 cells at 1 to 10 uM after 24 hrs by ELISA; format: functional, cell-based
[11] = test system: MDA-MB-231; experiment: Induction of mitochondrial membrane potential loss in human MDA-MB-231 cells assessed as ratio of green to red fluorescence at 0.5 uM after 24 hrs by JC1 staining based flow cytometric analysis (reference value: 4.55); format: functional
[12] = test system: MCF7; experiment: Induction of mitochondrial membrane potential loss in human MCF7 cells after 24 hrs by JC1 staining based flow cytometric analysis; format: functional, cell-based
[13] = test system: MDA-MB-231; experiment: Induction of apoptosis in human MDA-MB-231 cells after 24 hrs by Annexin-V-FITC/propidium iodide staining based flow cytometric analysis; format: functional, cell-based
[14] = test system: MDA-MB-231; experiment: Cell cycle arrest in human MDA-MB-231 cells assessed as decrease in S phase population after 24 hrs by flow cytometric analysis; format: functional, cell-based
[15] = test system: MCF7; experiment: Anti-invasive activity against human MCF7 cells assessed as inhibition of TGF-beta induced cell invasion at 0.5 to 1 uM after 24 hrs by crystal violet staining based transwell assay; format: functional
[16] = test system: MDA-MB-231; experiment: Cell cycle arrest in human MDA-MB-231 cells assessed as increase in sub-G1 population after 24 hrs by flow cytometric analysis; format: functional, cell-based
[17] = test system: MCF7; experiment: Decrease in progesterone level in human MCF7 cells at 1 to 10 uM after 24 hrs by ELISA; format: functional, cell-based
[18] = test system: MDA-MB-231; experiment: Induction of mitochondrial membrane potential loss in human MDA-MB-231 cells assessed as ratio of green to red fluorescence at 1 uM after 24 hrs by JC1 staining based flow cytometric analysis (reference value: 4.55); format: functional
[19] = test system: MDA-MB-231; experiment: Induction of mitochondrial membrane potential loss in human MDA-MB-231 cells assessed as ratio of green to red fluorescence at 5 uM after 24 hrs by JC1 staining based flow cytometric analysis (reference value: 4.55); format: functional
[20] = test system: MDA-MB-231; experiment: Induction of mitochondrial membrane potential loss in human MDA-MB-231 cells after 24 hrs by JC1 staining based flow cytometric analysis; format: functional, cell-based
[21] = test system: MDA-MB-231; experiment: Anti-migratory activity against human MDA-MB-231 cells assessed as reduction in cell migration towards wound area at 0.1 uM after 24 hrs by phase contrast microscopic analysis; format: functional, cell-based
[22] = test system: MDA-MB-231; experiment: Cell cycle arrest in human MDA-MB-231 cells assessed as increase in G2/M-phase population after 24 hrs by flow cytometric analysis; format: functional, cell-based
[23] = test system: MCF7; experiment: Induction of mitochondrial membrane potential loss in human MCF7 cells assessed as ratio of green to red fluorescence at 1 uM after 24 hrs by JC1 staining based flow cytometric analysis (reference value: 1.41); format: functional
[24] = test system: MCF7; experiment: Induction of mitochondrial membrane potential loss in human MCF7 cells assessed as ratio of green to red fluorescence at 0.5 uM after 24 hrs by JC1 staining based flow cytometric analysis (reference value: 1.41); format: functional
[25] = test system: MCF7; experiment: Cell cycle arrest in human MCF7 cells assessed as increase in G2/M population at 0.5 to 10 uM after 24 hrs by propidium iodide staining based flow cytometric analysis; format: functional
[26] = test system: MCF7; experiment: Decrease in 5alpha-DHP level in human MCF7 cells at 1 to 10 uM after 24 hrs by ELISA; format: functional, cell-based

Which results are given for COc1ccc2c(c1)C1=CC[C@@H]3C[C@@H](OCc4ccccc4)CN3[C@@H]1CC2?
IC50 [1]: 42.4 µM; IC50 [2]: > 50 µM; IC50 [3]: > 50 µM

How did the IC50 [1] turn out when COc1ccc2c(c1)C1=CC[C@@H]3C[C@@H](OCc4ccccc4)CN3[C@H]1CC2 was run?
Its IC50 is 9.8 µM.

And the IC50 [2]?
Its IC50 is > 50 µM.

What about the IC50 [3] of the same molecule?
Its IC50 is > 50 µM.

Which results are given for C1=C2c3ccccc3CC[C@@H]2N2CCC[C@H]2C1?
IC50 [1]: 47.2 µM; IC50 [2]: > 50 µM; IC50 [3]: > 50 µM

What does the source list for C[C@]12CC=C3c4ccccc4CC[C@@H]3N1CCC2?
IC50 [1]: 1.4 µM; Activity [4]: Active; Activity [5]: 100%; Activity [6]: Active; Activity [7]: Dose-dependent effect; Ratio [8]: 8.29; Activity [9]: Dose-dependent effect; IC50 [2]: 1 µM; Activity [10]: Active; Ratio [11]: 7.8; Activity [12]: Dose-dependent effect; Activity [13]: Dose-dependent effect; Activity [14]: Dose-dependent effect; inhibition [15]: Active; Activity [16]: Dose-dependent effect; Activity [17]: Active; Ratio [18]: 9.35; IC50 [3]: > 50 µM; Ratio [19]: 9.045; Activity [20]: Dose-dependent effect; Activity [21]: inactive; Activity [22]: Dose-dependent effect; Ratio [23]: 4.45; Ratio [24]: 2.51; Activity [25]: Active

Which results are given for CC(C)(C)NC(=O)[C@H]1CC[C@H]2[C@@H]3CC[C@H]4NC(=O)C=C[C@]4(C)[C@H]3CC[C@]12C [FINASTERIDE]?
IC50 [1]: > 50 µM; Activity [26]: inactive; IC50 [2]: 44.1 µM; Activity [10]: inactive; Activity [17]: Active; IC50 [3]: > 50 µM

Which results are given for C1=C2c3ccccc3CC[C@H]2N2C[C@H](OCc3ccccc3)C[C@H]2C1?
IC50 [1]: 35.6 µM; IC50 [2]: 5.4 µM; IC50 [3]: > 50 µM

C1=C2c3ccccc3CC[C@@H]2N2C[C@H](OCc3ccccc3)C[C@H]2C1 was tested. Which IC50 [1] did it give?
The IC50 was 45.3 µM.

What about the IC50 [2] of the same molecule?
The IC50 was 40.6 µM.

What about the IC50 [3] of the same molecule?
The IC50 was > 50 µM.

For C[C@]12CC=C3c4ccccc4CC[C@H]3N1CCC2, which IC50 [1] is on record?
Its IC50 is 33.9 µM.

And the IC50 [2]?
The IC50 was 4.3 µM.

What about the IC50 [3] of the same molecule?
Its IC50 is > 50 µM.

C1=C2c3ccccc3CC[C@H]2N2CCC[C@H]2C1 was tested. Which IC50 [1] did it give?
Its IC50 is > 50 µM.

And the IC50 [2]?
Its IC50 is 34.4 µM.

What about the IC50 [3] of the same molecule?
The IC50 was > 50 µM.

Reference: ChEMBL document CHEMBL4052754, “Targeting progesterone metabolism in breast cancer with l-proline derived new 14-azasteroids” (Bioorg Med Chem, 2017)
